Data from patent publication US5602153A, “Method of using 1-arylheteroarylalkyl substituted-1H-1,2,4-triazole compounds for treatment of a giaucoma disorder” (G.D. Searle & Co., priority 1993, dated 1997).
Where two headings read alike, the source gives them in different places.

Assays:
[1] = system: pressor response to AII; test: Assay D: In Vivo Intragastric Pressor Assay Response for AII Antagonists of Examples #1 and #3; parameters: species or system rat (male Sprague-Dawley); details: 3 mg/kg gavage
Protocol: Assay D: In Vivo Intragastric Pressor Assay Response for AII Antagonists of Examples #1 and #3
Male Sprague-Dawley rats weighing 225-300 grams were anesthetized with methohexital (30 mg/kg, i.p.) and catheters were implanted into the femoral artery and vein. The catheters were tunneled subcutaneously to exit dorsally, posterior to the head and between the scapulae. The catheters were filled with heparin (1000 units/ml of saline). The rats were returned to their cage and allowed regular rat chow and water ad libitum. After full recovery from surgery (3-4 days), rats were placed in Lucite holders and the arterial line was connected to a pressure transducer. Arterial pressure was recorded on a Gould polygraph (mmHg). Angiotensin II was administered as a 30 ng/kg bolus via the venous catheter delivered in a 50 μl volume with a 0.2 ml saline flush. The pressor response in mm Hg was measured by the difference from pre-injection arterial pressure to the maximum pressure achieved. The AII injection was repeated every 10 minutes until three consecutive injections yielded responses within 4 mmHg of each other. These three responses were then averaged and represented the control response to AII. The test compound was suspended in 0.5% methylcellulose in water and was administered by gavage. The volume administered was 2 ml/kg body weight. The standard dose was 3 mg/kg. […] The pressor response to AII was measured at each time point. The rats were then returned to their cage for future testing. A minimum of 3 days was allowed between tests. Percent inhibition was calculated for each time point following gavage by the following formula: [(Control Response-Response at time point)/Control Response]×100.

[2] = target: T1, rabbit aortic rings (Oryctolagus cuniculus, UniProt P34976); test: Assay B: In Vitro Vascular Smooth Muscle-Response for AII (antagonist activity in rabbit aortic rings); type: cell-based, rabbit (male New Zealand white); details: antagonist 10^-5 M for 5 min, AII challenge
T1 construct: The thoracic aorta was removed, cleaned of adherent fat and connective tissue; from tissue; host or cells: thoracic aorta rings, endothelium removed, male New Zealand white rabbit
T1 sequence (P34976 1-359): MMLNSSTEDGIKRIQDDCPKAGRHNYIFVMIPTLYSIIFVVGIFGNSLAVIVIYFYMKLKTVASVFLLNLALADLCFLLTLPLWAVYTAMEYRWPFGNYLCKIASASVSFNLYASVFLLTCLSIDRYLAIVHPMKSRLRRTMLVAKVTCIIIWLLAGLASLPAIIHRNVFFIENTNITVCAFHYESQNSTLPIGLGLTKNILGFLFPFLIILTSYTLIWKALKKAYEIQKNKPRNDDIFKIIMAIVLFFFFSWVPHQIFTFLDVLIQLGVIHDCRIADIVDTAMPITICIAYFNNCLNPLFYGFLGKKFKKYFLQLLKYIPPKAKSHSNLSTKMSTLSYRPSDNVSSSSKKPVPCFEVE

Structure (SMILES): CCCCc1nc(CCCC)n(Cc2ccc(-c3ccccc3-c3nnn[nH]3)nc2)n1 [Example 3, 5-[2-[5-[(3,5-dibutyl-1H-1,2,4-triazol-1-yl)methyl]-2-pyridinyl]phenyl]-1H-tetrazole]
- % Inhibition of Blood Pressure Elevation ([1]; Rat A, 0 min): 0%
- % Inhibition of Blood Pressure Elevation ([1]; Rat A, 30 min): 64%
- % Inhibition of Blood Pressure Elevation ([1]; Rat A, 45 min): 67%
- % Inhibition of Blood Pressure Elevation ([1]; Rat A, 60 min): 52%
- % Inhibition of Blood Pressure Elevation ([1]; Rat A, 75 min): 45%
- % Inhibition of Blood Pressure Elevation ([1]; Rat A, 90 min): 60%
- % Inhibition of Blood Pressure Elevation ([1]; Rat A, 120 min): 41%
- % Inhibition of Blood Pressure Elevation ([1]; Rat A, 150 min): 38%
- % Inhibition of Blood Pressure Elevation ([1]; Rat A, 180 min): 24%
- % Inhibition of Blood Pressure Elevation ([1]; Rat B, 0 min): 0%
- % Inhibition of Blood Pressure Elevation ([1]; Rat B, 30 min): 55%
- % Inhibition of Blood Pressure Elevation ([1]; Rat B, 45 min): 71%
- % Inhibition of Blood Pressure Elevation ([1]; Rat B, 60 min): 55%
- % Inhibition of Blood Pressure Elevation ([1]; Rat B, 75 min): 53%
- % Inhibition of Blood Pressure Elevation ([1]; Rat B, 90 min): 50%
- % Inhibition of Blood Pressure Elevation ([1]; Rat B, 120 min): 50%
- % Inhibition of Blood Pressure Elevation ([1]; Rat B, 150 min): 53%
- % Inhibition of Blood Pressure Elevation ([1]; Rat B, 180 min): 40%
- % Inhibition of Blood Pressure Elevation ([1]; Rat C, 0 min): 0%
- % Inhibition of Blood Pressure Elevation ([1]; Rat C, 30 min): 15%
- % Inhibition of Blood Pressure Elevation ([1]; Rat C, 45 min): 12%
- % Inhibition of Blood Pressure Elevation ([1]; Rat C, 60 min): 46%
- % Inhibition of Blood Pressure Elevation ([1]; Rat C, 75 min): 27%
- % Inhibition of Blood Pressure Elevation ([1]; Rat C, 90 min): 46%
- % Inhibition of Blood Pressure Elevation ([1]; Rat C, 120 min): 53%
- % Inhibition of Blood Pressure Elevation ([1]; Rat C, 150 min): 50%
- % Inhibition of Blood Pressure Elevation ([1]; Rat C, 180 min): 62%
- % Inhibition of Blood Pressure Elevation ([1]; Rat D, 0 min): 0%
- % Inhibition of Blood Pressure Elevation ([1]; Rat D, 30 min): 21%
- % Inhibition of Blood Pressure Elevation ([1]; Rat D, 45 min): 14%
- % Inhibition of Blood Pressure Elevation ([1]; Rat D, 60 min): 36%
- % Inhibition of Blood Pressure Elevation ([1]; Rat D, 75 min): 36%
- % Inhibition of Blood Pressure Elevation ([1]; Rat D, 90 min): 26%
- % Inhibition of Blood Pressure Elevation ([1]; Rat D, 120 min): 34%
- % Inhibition of Blood Pressure Elevation ([1]; Rat D, 150 min): 29%
- % Inhibition of Blood Pressure Elevation ([1]; Rat D, 180 min): 3%
- % Inhibition of Blood Pressure Elevation ([1]; Rat E, 0 min): 0%
- % Inhibition of Blood Pressure Elevation ([1]; Rat E, 30 min): 52%
- % Inhibition of Blood Pressure Elevation ([1]; Rat E, 45 min): 43%
- % Inhibition of Blood Pressure Elevation ([1]; Rat E, 60 min): 38%
- % Inhibition of Blood Pressure Elevation ([1]; Rat E, 75 min): 43%
- % Inhibition of Blood Pressure Elevation ([1]; Rat E, 90 min): 29%
- % Inhibition of Blood Pressure Elevation ([1]; Rat E, 120 min): 29%
- % Inhibition of Blood Pressure Elevation ([1]; Rat E, 150 min): 16%
- % Inhibition of Blood Pressure Elevation ([1]; Rat E, 180 min): 16%
- % Inhibition of Blood Pressure Elevation ([1]; Rats A-E Mean ± SE, 0 min): 0%
- % Inhibition of Blood Pressure Elevation ([1]; Rats A-E Mean ± SE, 30 min): 42 ± 10%
- % Inhibition of Blood Pressure Elevation ([1]; Rats A-E Mean ± SE, 45 min): 41 ± 13%
- % Inhibition of Blood Pressure Elevation ([1]; Rats A-E Mean ± SE, 60 min): 46 ± 4%
- % Inhibition of Blood Pressure Elevation ([1]; Rats A-E Mean ± SE, 75 min): 41 ± 4%
- % Inhibition of Blood Pressure Elevation ([1]; Rats A-E Mean ± SE, 90 min): 42 ± 6%
- % Inhibition of Blood Pressure Elevation ([1]; Rats A-E Mean ± SE, 120 min): 41 ± 5%
- % Inhibition of Blood Pressure Elevation ([1]; Rats A-E Mean ± SE, 150 min): 37 ± 7%
- % Inhibition of Blood Pressure Elevation ([1]; Rats A-E Mean ± SE, 180 min): 29 ± 10%
- Kb ([2]; first of two rabbits, read-out: pA2 (first value) (converted)): 2.69 nM
- Kb ([2]; second of two rabbits, read-out: pA2 (converted)): 5.75 nM
